From ChEMBL document CHEMBL1123744, “A quantitative structure-activity relationship analysis of some 4-aminodiphenyl sulfone antibacterial agents using linear free energy and molecular modeling methods” (J Med Chem, 1987)

Test system: Mycobacterium lufu
Test: In vitro inhibition of Mycobacterium lufu dihydopterate synthase.

pC | Compound
5.65 | N#Cc1cc(N)ccc1S(=O)(=O)c1ccc(N)cc1
6.07 | Nc1ccc(S(=O)(=O)c2ccc(N)c(O)c2)cc1
6.32 | Nc1ccc(S(=O)(=O)c2ccc(N)cc2Cl)cc1
5.4 | CCCNc1ccc(S(=O)(=O)c2ccc(N)cc2)cc1OC
6.14 | CCNc1ccc(S(=O)(=O)c2ccc(N)cc2)c(O)c1
5.65 | Nc1ccc(S(=O)(=O)c2ccccc2N)cc1
5.92 | CCCNc1ccc(S(=O)(=O)c2ccc(N)cc2)c(OC)c1
5.82 | Nc1ccc(S(=O)(=O)c2ccc(O)cc2)cc1
5.61 | Nc1ccc(S(=O)(=O)c2ccccc2[N+](=O)[O-])cc1
5.87 | Nc1ccc(S(=O)(=O)c2ccc(N)cc2[N+](=O)[O-])cc1
5.73 | COc1cc(N)ccc1S(=O)(=O)c1ccc(N)cc1
5.99 | CCCCNc1ccc(S(=O)(=O)c2ccc(N)cc2)c(OC)c1
5.65 | COC(=O)CNc1ccc(S(=O)(=O)c2ccc(N)cc2)cc1
5.92 | Nc1ccc(S(=O)(=O)c2ccc(N)cc2)cc1
5.12 | COc1ccc(S(=O)(=O)c2ccc(N)cc2)cc1
6.06 | Nc1ccc(S(=O)(=O)c2ccc(NCC(=O)O)cc2)cc1
4.93 | Nc1ccc(S(=O)(=O)c2ccc([N+](=O)[O-])cc2N)cc1
5.75 | CN(C)c1ccc(S(=O)(=O)c2ccc(N)cc2)cc1

pC | Compound
4.92 | Nc1ccc(S(=O)(=O)c2ccccc2)cc1
5.7 | CCNc1ccc(S(=O)(=O)c2ccc(N)cc2)cc1O
5.15 | CC(=O)Nc1ccc(S(=O)(=O)c2ccc(N)cc2)cc1
5.56 | CCNc1ccc(S(=O)(=O)c2ccc(N)cc2)cc1
6.19 | Cc1cc(N)ccc1S(=O)(=O)c1ccc(N)cc1
5.44 | Nc1ccc(S(=O)(=O)c2ccc(C(=O)O)cc2)cc1
5.99 | Nc1ccc(S(=O)(=O)c2ccc(N)cc2N)cc1
5.56 | COc1cc(S(=O)(=O)c2ccc(N)cc2)ccc1N
5.64 | CCCNc1ccc(S(=O)(=O)c2ccc(N)cc2)cc1O
5.75 | CCNc1ccc(S(=O)(=O)c2ccc(N)cc2)c(OC)c1
5.09 | Cc1ccc(S(=O)(=O)c2ccc(N)cc2)cc1
5.71 | CCCNc1ccc(S(=O)(=O)c2ccc(N)cc2)c(O)c1
5.49 | CCNc1ccc(S(=O)(=O)c2ccc(N)cc2)cc1OC
4.89 | Nc1ccc(S(=O)(=O)c2ccc(Cl)cc2)cc1
4.93 | COC(=O)c1ccc(S(=O)(=O)c2ccc(N)cc2)cc1
4.9 | NNC(=O)c1ccc(S(=O)(=O)c2ccc(N)cc2)cc1
5.89 | CNc1ccc(S(=O)(=O)c2ccc(N)cc2)cc1
4.51 | Nc1ccc(S(=O)(=O)c2ccc([N+](=O)[O-])cc2)cc1
